According to ChEMBL document CHEMBL1201862, “PubChem BioAssay data set” (2004):
“And” between values parts separate entries of the source, which are not always exact repeats. Equal entries are not always repeated. The source made the active and inactive calls.

What was measured:
[1] = inhibitors of non-replicating M. tuberculosis, dose response, luciferase, dry powder (AID 651619); assay type: functional; conditions: Mycobacterium tuberculosis
[2] = inhibitors of non-replicating M. tuberculosis, dose response, luciferase, dry powder (AID 651620); assay type: functional; conditions: Mycobacterium tuberculosis
cells [3] = assay: cells
[4] = molecular target: T1, Oxysterols receptor LXR-beta (Homo sapiens, UniProt P55055); assay type: functional, cell-based;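 note: Cell-based luminescence dose-response assay of agonist activity at LXR, run as a confirmatory counterscreen to a daf-12 agonist screen; HEK293 cells with Gal4-LXR fusion and GAL4-driven luciferase reporter; agonist potency from rising luciferase signal of a Gal4-LXR reporter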
T1 sequence (P55055 whole entry): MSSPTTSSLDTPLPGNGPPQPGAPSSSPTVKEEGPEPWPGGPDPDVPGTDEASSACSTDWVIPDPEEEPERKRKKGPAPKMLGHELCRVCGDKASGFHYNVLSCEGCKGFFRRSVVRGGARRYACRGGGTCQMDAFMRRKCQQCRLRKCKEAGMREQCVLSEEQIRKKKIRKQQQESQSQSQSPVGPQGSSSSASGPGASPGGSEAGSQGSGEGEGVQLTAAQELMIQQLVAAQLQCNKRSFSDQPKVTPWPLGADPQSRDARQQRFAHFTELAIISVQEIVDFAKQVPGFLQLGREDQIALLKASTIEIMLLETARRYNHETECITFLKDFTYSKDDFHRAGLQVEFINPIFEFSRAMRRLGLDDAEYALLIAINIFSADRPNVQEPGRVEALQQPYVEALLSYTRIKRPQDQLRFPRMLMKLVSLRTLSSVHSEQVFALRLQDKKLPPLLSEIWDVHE

[5] = T. cruzi growth inhibition in host cells, dose response, cell-based, plate reader, dry powder, set 2 (AID 652275); assay type: functional
[6] = cytotoxicity dependent on PAX8, dose response, cell-based, plate reader, dry powder (AID 743049); assay type: functional
[7] = A2780 ovarian cancer cell cytotoxicity, dose response, cytotoxicity control, plate reader, dry powder samples (AID 743046); assay type: functional, cell-based
[8] = IOSE-T80 ovarian epithelial cell cytotoxicity, dose response, cytotoxicity control for PAX8 inhibitor project, plate reader, dry powder samples (AID 743045); assay type: functional, cell-based
[9] = cytotoxicity in COV362 ovarian cancer cells, dose response, cytotoxicity control for PAX8 inhibitor project, cell-based, plate reader, dry powder, SA12 (AID 743144); assay type: functional
[10] = cytotoxicity in COV434 cells, dose response, cytotoxicity control for PAX8 inhibitor project, cell-based, plate reader, dry powder, SA7 (AID 743145); assay type: functional
[11] = IGROV1 ovarian cancer cell cytotoxicity, dose response, PAX8 inhibitor project, plate reader, dry powder samples (AID 743043); assay type: functional, cell-based; conditions: IGROV-1
[12] = NIH:OVCAR-3 ovarian cancer cell cytotoxicity, dose response, PAX8 inhibitor project, plate reader, dry powder samples (AID 743044); assay type: functional, cell-based
[13] = cytotoxicity in OV-90 ovarian cancer cells, dose response, PAX8 inhibitor project, cell-based, plate reader, dry powder, SA8 (AID 743149); assay type: functional
[14] = PAX2 cell-based inhibition, dose response, selectivity assay for PAX8 inhibitor project, plate reader, dry powder samples (AID 743048); assay type: functional;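 note: HEK293 cells carrying a WT1 promoter luciferase reporter driven by expressed Pax2; potency is for inhibition of Pax2 driven reporter signal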
[15] = cytotoxicity in OVCAR4 cells, dose response, cytotoxicity control for PAX8 inhibitor project, cell-based, plate reader, dry powder, SA11 (AID 743150); assay type: functional; conditions: OVCAR-4
fMet-Leu-Phe receptor = fMet-Leu-Phe receptor (Homo sapiens, UniProt P21462); assay: FPR ligands, dose response (AID 519); assay type: functional
[16] = inhibitors of CMV-promoter luciferase reporter, dose response, counter-screen for Pax8 inhibitor project, cell-based, HEK293, luminescence, dry powder (AID 743020); assay type: functional
Paired box protein Pax-8 = Paired box protein Pax-8 (Homo sapiens, UniProt Q06710); assay: inhibitors of PAX8-driven TPO luciferase reporter, dose response, RMG-I cells, cherry-pick (AID 687027); assay type: functional, cell-based;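 note: luciferase reporter driven by Pax8 target thyroperoxidase promoter measured by SteadyGlo luminescence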
[17] = cytotoxicity in OVCAR8 ovarian cancer cells, dose response, PAX8 project, cell-based, plate reader, dry powder samples (AID 743197); assay type: functional; conditions: OVCAR-8
cells [18] = assay: cells; remark: listed apart in the source
[19] = HIV Env cell-cell fusion inhibitors, dose response, HIV entry, plate reader, dry powder (AID 687023); assay type: functional, cell-based
[20] = CEM21 cell cytotoxicity, dose response, cytotoxicity control, plate reader, dry powder (AID 687026); assay type: functional, cell-based
[21] = Keap1 Kelch-Nrf2 peptide binding inhibitors, dose response, biochemical, fluorescence polarization, dry powder, set 3 (AID 651806)
Keap1/Nrf2 = Keap1/Nrf2 (Homo sapiens, UniProt Q14145); assay: Keap1-Nrf2 protein-protein interaction inhibitors, dose response, biochemical, fluorescence polarization, cherry-picked samples (AID 588683)
Keap1/Nrf2, sequence (Q16236 whole entry): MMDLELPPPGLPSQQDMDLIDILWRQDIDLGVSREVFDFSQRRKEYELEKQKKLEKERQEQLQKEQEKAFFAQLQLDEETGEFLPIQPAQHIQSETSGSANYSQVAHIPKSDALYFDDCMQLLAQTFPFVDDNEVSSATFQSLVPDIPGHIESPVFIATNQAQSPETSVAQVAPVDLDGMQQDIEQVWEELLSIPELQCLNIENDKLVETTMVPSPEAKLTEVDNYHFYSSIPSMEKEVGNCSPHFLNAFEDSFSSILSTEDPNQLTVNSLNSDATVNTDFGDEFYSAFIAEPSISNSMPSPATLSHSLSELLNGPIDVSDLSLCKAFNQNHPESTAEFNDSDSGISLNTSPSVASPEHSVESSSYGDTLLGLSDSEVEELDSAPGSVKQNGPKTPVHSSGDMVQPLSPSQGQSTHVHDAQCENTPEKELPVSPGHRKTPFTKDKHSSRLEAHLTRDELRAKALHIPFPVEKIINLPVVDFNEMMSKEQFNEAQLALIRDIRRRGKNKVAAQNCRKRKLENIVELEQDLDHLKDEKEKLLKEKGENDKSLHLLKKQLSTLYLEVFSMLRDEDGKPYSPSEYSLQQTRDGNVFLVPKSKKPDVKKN
Keap1/Nrf2, sequence (Q14145 whole entry): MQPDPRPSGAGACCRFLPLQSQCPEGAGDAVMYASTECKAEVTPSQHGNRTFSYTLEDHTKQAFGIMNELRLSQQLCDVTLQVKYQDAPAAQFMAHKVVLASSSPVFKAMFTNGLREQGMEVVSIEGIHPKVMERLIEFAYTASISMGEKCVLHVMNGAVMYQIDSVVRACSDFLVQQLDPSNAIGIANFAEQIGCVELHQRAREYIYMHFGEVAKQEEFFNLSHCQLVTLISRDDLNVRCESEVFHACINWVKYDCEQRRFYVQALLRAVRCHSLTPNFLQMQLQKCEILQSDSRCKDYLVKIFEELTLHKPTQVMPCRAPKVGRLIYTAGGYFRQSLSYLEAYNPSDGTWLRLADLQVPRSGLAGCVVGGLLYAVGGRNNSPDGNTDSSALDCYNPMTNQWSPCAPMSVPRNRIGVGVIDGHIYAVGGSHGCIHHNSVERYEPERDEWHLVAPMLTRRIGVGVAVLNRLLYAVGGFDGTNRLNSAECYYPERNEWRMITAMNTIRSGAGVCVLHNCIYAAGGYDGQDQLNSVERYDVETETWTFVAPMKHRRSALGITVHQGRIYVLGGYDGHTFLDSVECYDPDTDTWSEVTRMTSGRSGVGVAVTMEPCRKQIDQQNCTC

Paired box protein Pax-8, sequence (Q06710 whole entry): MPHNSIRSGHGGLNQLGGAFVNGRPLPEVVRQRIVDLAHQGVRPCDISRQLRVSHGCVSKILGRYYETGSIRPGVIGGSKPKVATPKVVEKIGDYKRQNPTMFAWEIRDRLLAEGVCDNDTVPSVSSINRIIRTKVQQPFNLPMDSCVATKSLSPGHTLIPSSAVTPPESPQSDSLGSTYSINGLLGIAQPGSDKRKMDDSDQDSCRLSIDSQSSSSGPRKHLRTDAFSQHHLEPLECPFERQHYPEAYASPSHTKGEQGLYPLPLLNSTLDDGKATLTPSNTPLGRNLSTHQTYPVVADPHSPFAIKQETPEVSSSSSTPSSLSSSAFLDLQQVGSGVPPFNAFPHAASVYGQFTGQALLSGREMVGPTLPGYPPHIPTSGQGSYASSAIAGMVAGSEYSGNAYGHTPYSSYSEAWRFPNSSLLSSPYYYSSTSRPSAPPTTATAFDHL
fMet-Leu-Phe receptor, sequence (P21462 whole entry): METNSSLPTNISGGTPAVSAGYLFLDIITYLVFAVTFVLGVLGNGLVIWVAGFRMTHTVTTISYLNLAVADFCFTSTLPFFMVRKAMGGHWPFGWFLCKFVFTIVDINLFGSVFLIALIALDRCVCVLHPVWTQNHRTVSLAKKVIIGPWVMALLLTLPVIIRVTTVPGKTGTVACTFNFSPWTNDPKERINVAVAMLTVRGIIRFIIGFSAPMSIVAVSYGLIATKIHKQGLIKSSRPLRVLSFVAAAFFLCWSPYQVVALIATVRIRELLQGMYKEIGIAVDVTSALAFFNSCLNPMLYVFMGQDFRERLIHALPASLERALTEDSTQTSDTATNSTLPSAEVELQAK

## c1ccc(-c2nnc(SCc3cccnc3)o2)cc1
[1]
  IC90: 8 µM (active)
[2]
  IC90: 8 µM (active)

## N#Cc1ccsc1NC(=O)CSc1nncs1
Cells [3]
  EC50: > 67.5 µM (inactive)
[4]
  EC50: > 67.5 µM (inactive)

## CC(C)N1C[C@H](C)[C@@H](CN(C)Cc2ccc(F)cc2)Oc2c(C(=O)Nc3ccncc3)cccc2C1=O
[5]
  AC50: 0.313 µM (active)

## COc1ccc(OC)c2sc(N(CCCN(C)C)C(=O)CCS(=O)(=O)c3ccccc3)nc12
[6]
  AC50: 13.2 µM (active)
[7]
  AC50: 40 µM (active)
[8]
  AC50: 14.5 µM (active)
[9]
  AC50: 12 µM (active)
[10]
  AC50: 5.66 µM (active)
[11]
  AC50: 25.5 µM (active)
[12]
  AC50: 7.2 µM (active)
[13]
  AC50: 17.3 µM (active)
[14]
  AC50: 56.3 µM (active)
[15]
  AC50: 22.8 µM (active)

## CCOc1cc(C2C(C(=O)c3ccco3)=C(O)C(=O)N2CCc2ccccc2)ccc1O (configuration not stated)
fMet-Leu-Phe receptor
  Ki: > 66.7 µM (inactive)

## C[C@@H]1CN([C@H](C)CO)C(=O)c2cc(NS(=O)(=O)c3ccccc3)ccc2O[C@@H](C)CCCCO[C@H]1CN(C)Cc1ccc(C(F)(F)F)cc1
[8]
  AC50: 55.1 µM (active)
[16]
  AC50: 29.8 µM (active)
[11]
  AC50: 35.8 µM (active)
[12]
  AC50: 15.7 µM (active)
Paired box protein Pax-8
  AC50: 5.82 µM (active)
[17]
  AC50: 17.6 µM (active)

## COc1ccc(C2C3=C(CCCC3=O)N(CC(=O)O)C3=C2C(=O)CCC3)cc1
Cells [18]
  AC50: 5.91 µM (active)

## CCOc1ccc(S(=O)(=O)NCc2ccncc2)cc1Cl
[19]
  AC50: 92.5 nM (active) and 125 nM (active)
[20]
  AC50: > 70 µM (inactive)

## Cc1ccc(S(=O)(=O)Nc2cc(C(C(=O)OC(C)C)C(=O)C(F)(F)F)c(O)c3ccccc23)c(C)c1 (configuration not stated)
[21]
  AC50: 74.9 µM (active)
Keap1/Nrf2
  AC50: 2.67 µM (active)
